# “And” between values parts separate entries of the source, which are not always exact repeats. Equal entries are not always repeated.
# Experiments:
# Format in all cases: cell-based
# brain CSCs ^CD133+ = experiment: MTT cell viability assay on brain CSCs CD133+
# From the text: Thereafter, a cell viability assay, MTT assay, was utilized to analyze the viabilities of brain CSCs ^CD133+ and malignant glioma DBTRG cells. […]
# [1] = system: HNC-TIC-like oral stem cells (ALDH1^+CD44^+-1 cell line, ALDH1^+CD44^+-2 cell line); experiment: MTT viability assay on HNC-TIC-like oral stem cells; details: BP 0, 25, 50 and 100 µg/ml for 24 hours; both cell lines; Figure 2
# Protocol: NHOKs (normal human oral keratinocytes) and HNC-TIC (head and neck cancer-derived tumor initiating cell)-like oral stem cells (i.e., ALDH1^+CD44^+-1 cell line or ALDH1^+CD44^+-2 cell line) were treated with different concentrations (0, 25, 50 and 100 µg/ml) of BP for 24 hours, and then, an MTT assay was utilized to analyzed the viabilities of NHOKs and HNC-TIC-like oral stem cells (i.e., ALDH1^+CD44^+-1 cell line and ALDH1^+CD44^+-2 cell line).
# EZH2 = experiment: Western blotting of EZH2 protein in brain CSCs CD133+; details: BP 0, 12.5, 25, 50, 62.5 and 75 µg/ml; Figure 3
# Protocol: It has been known that EZH2 (enhancer of zeste homolog 2) gene is a critical growth related factor of cancer stem cells, and it will affect the growth and growth characteristics of cancer stem cells. Brain CSCs ^CD133+ was treated with different concentrations (0, 12.5, 25, 50, 62.5 and 75 µg/ml) of BP, and then, proteins were extracted from the cells to conduct Western blotting to determine the expression of EZH2 protein in the BP-treated brain CSCs ^CD133+.
# [2] = system: Sox-2, CD133 and CD44 proteins; experiment: Western blotting of stemness-maintenance markers in MiaPaCa-2 cells; details: BP 0, 12.5, 25 and 50 µg/ml for 24 hours; Figure 6
# Protocol: It has been known that CD44, CD133, Sox-2 (sex-determining region Y protein (SRY)-related high-mobility group box 2) and Oct4 (octamerbinding transcription factor 4) proteins all are stemness-maintenance markers of cancer stem cells and participate in the regulation of the self-renewal and differentiation of cancer stem cells. Brain CSCs ^CD133+ was treated with different concentrations (0, 12.5, 25, 50, 62.5 and 75 µg/ml) of BP for 24 hours, and then, proteins were extracted from the cells to conduct Western blotting to determine the expressions of CD133, Sox-2 and Oct4 proteins in the BP-treated brain CSCs ^CD133+. In addition, MiaPaCa-2 cell line (i.e., a cell line of pancreatic cancer cells) was treated with different concentrations (0, 12.5, 25, and 50 µg/ml) of BP for 24 hours, and then, proteins were extracted from the cells to conduct Western blotting to determine the expressions of Sox-2, CD133 and CD44 proteins in the BP-treated MiaPaCa-2 cells. […]
# [3] = system: Axl and Gas6 proteins, Axl gene; experiment: Western blotting and RT-PCR of Axl and Gas6 in brain CSCs CD133+; details: BP 0, 12.5, 25, 50, 62.5 and 75 µg/ml for 24 hours, Figures 9A, 9B
# Protocol: It has been known that the expression of Axl (i.e., a receptor tyrosine kinase) is related to the ability of cancer stem cells in proliferation, anti-apoptosis, migration and invasion. Brain CSCs ^CD133+ was treated with different concentrations (0, 12.5, 25, 50, 62.5 and 75 µg/ml) of BP for 24 hours, and then, proteins and total RNA were extracted from the cells to conduct Western blotting and reverse transcriptase-polymerase chain reaction (RT-PCR) to determine the expressions of Axl and Gas6 (i.e., a ligand of Axl) proteins and the expression of Axl gene in the BP-treated brain CSCs ^CD133+.
# [4] = system: HNC-TIC-like oral stem cells (ALDH1^+CD44^+-1 cell line or ALDH1^+CD44^+-2 cell line); experiment: Transwell invasion assay with HNC-TIC-like oral stem cells; details: BP 0, 25 and 50 µg/ml for 24 hours
# From the text: In this research, the effect of BP on inhibiting the migration and invasion of cancer stem cells was further investigated by a transwell invasion assay system (i.e., Transwell^○,R system, purchased from Corning, UK) with a polycarbonate filter membrane of 8-µm pore size (purchased from Coming, UK). First, the polycarbonate filter membrane was coated with Matrigel™ (purchased from BD Pharmingen, USA), and then, the coated membrane was placed in the lower chamber of the transwell invasion assay system. Then, the lower chamber was filled with 10% serum-containing medium. On the other hand, HNC-TIC-like oral stem cells (i.e., ALDH1^+CD44^+-1 cell line or ALDH1^+CD44^+-2 cell line) were treated with different concentrations (0, 25 and 50 µg/ml) of BP for 24 hours, and then, the treated cells of each group was cultured in the upper chamber which was filled with serum-free medium, at a cell density of 1×10^5 cells/100 µl for 24 hours. […] The invasion cancer cells of each group were counted and photographed over five visual fields of the membrane with the use of a 100-fold magnification under a microscope. The relative invasion ability of cells of each experimental group was calculated based on the result of the group treated with 0 µg/ml of BP.
smiles,measurement,setting,value
"CCCC=C1OC(=O)c2ccccc21 [BP, butylidenephthalide]",viability of brain CSCs ^CD133+,"brain CSCs ^CD133+; 24-hour group and 48-hour group, BP 0-100 µg/ml, BCNU 0-1000 µM, Figure 1A, 1B",significantly decreased
same,IC50,"brain CSCs ^CD133+; 24 h, read-out: IC50 to brain CSCs ^CD133+",406 µM and 76.5 µg/mL
same,viability of HNC-TIC-like oral stem cells,[1],decreased along with the increment in the concentration of BP
same,expression of EZH2 protein in brain CSCs ^CD133+,EZH2,significantly decreased
same,"expressions of Sox-2, CD133 and CD44 proteins in MiaPaCa-2 cells",[2],significantly decreased
same,expressions of Axl and Gas6 proteins and the expression of Axl gene,[3],significantly decreased
same,number of cells on the polycarbonate filter membrane,[4]; Figure 11A,significantly reduced
same,relative invasion ability of cancer stem cells,"[4]; relative to 0 µg/ml group, Figure 11B",decreased along with the increment in the concentration of BP

# From patent publication EP3338775B1, “USE OF BUTYLIDENEPHTHALIDE” (Everfront Biotech Inc., priority 2015, dated 2017)
